The values below are quoted from earlier work in patent US20130244874A1, “Waterless Composition Comprising Pesticide and Copolymers with Sulfonic Acid Groups” (BASF SE, priority 2010, published 2013).

SMILES strings stand for the structures. Converted amounts (≈) assume the structure as drawn.

For the compound `C[S+](C)[O-]` [Solvent E, DMSO], where the note is “solvent”, the miscibility with water result was “infinitely miscible with water”.
For `Cn1cc(C(=O)Nc2ccccc2-c2cc(F)c(F)c(F)c2)c(C(F)F)n1` [Fluxapyroxad, reference compound], the solubility in water (20° C.) was 3.8 mg/L (≈ 9.97 µM).
As to `CC(C)CCCCCCOC(=O)C1CCCCC1C(=O)OCCCCCCC(C)C` (stereo not shown) [Solvent C, Diisononyl 1,2-cyclohexanedicarboxylate], the water-soluble (solvent, temperature not given) was less than 0.02 mg/L.
On to `O=C1CCCO1` [Solvent G, gamma-butyrolactone], for which the miscibility with water result (solvent) is “infinitely miscible with water”.
